Experimental data reported in patent publication US20210395651A1, “COMPOUNDS STABILIZING HYDROLASES IN LIQUIDS” (BASF SE, priority 2018, published 2021).

Molecular target: T1, Lipolase® 100L (Thermomyces lanuginosus, UniProt O59952)
T1 construct: purchased Sigma-Aldrich
T1 sequence (O59952 23-291): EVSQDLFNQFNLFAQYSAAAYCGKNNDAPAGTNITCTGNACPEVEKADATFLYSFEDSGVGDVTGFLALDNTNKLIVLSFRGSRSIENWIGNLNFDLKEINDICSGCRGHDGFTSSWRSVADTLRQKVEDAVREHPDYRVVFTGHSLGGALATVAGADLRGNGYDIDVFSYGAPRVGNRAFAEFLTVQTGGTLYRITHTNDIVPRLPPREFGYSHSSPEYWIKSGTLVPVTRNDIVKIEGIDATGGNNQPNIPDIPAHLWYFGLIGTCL
Test: Lipase storage stability in liquid formulations at 37° C. (pNP-valerate activity)
Assay type: biochemical, Thermomyces lanuginosa
Settings: for lipase activity, 3 d: 3 d storage at 37° C.; for lipase activity, 7 d: 7 d storage at 37° C.; for lipase activity, 14 d: 14 d storage at 37° C.; for lipase activity, 21 d: 21 d storage at 37° C.; for lipase activity, 28 d: 28 d storage at 37° C.; for lipase activity, 35 d: 35 d storage at 37° C.; for lipase activity, T0: relative to 100% value of reference formulation at time 0
Description: The storage stability of Lipase was assessed at 37° C.
Base test formulations were manufactured by making base formulations I to V by mixing the components according to Table 1.
The respective component (a) or comparative compound was added, if applicable, to the respective base formulation in amounts as indicated in Table 1.
Lipase used: Lipolase® 100L (CAS-No. 9001-62-1, EC-No. 232-619-9) was purchased from Sigma-Aldrich.
The amount of lipase as provided in Table 1 refers to active protein.
Water was added to accomplish the balance to 100.
Lipolase activity at certain points in time as indicated in Table 2 was be determined by employing pNitrophenol-valerate (2.4 mM pNP-C5 in 100 mM Tris pH 8.0, 0.01% Triton X100) as a substrate. The absorption at 405 nm was measured at 20° C. every 30 seconds over 5 minutes.
The slope (absorbance increase at 405 nm per minute) of the time dependent absorption-curve is directly proportional to the activity of the lipase.
The […] activity values provided in Table 2 were calculated referring to the 100% value determined in the reference formulation at the time 0.
The nomenclature of formulations is as follows: the Roman number before the full stop characterizes the base formulation, the Arabian number the type of compound (A.# compound according to invention (component (a)); (B.#) comparative compound).

[1] = base formulation I. (Lipolase 0.2 wt%, tested compound 2.5 wt%)
[2] = base formulation III. (Lipolase 0.2 wt%, tested compound 2.0 wt%)
[3] = base formulation IV. (Lipolase 0.2 wt%, tested compound 2.0 wt%)
[4] = base formulation V. (Lipolase 0.2 wt%, tested compound 2.0 wt%)
[5] = base formulation II. (Lipolase 0.2 wt%, tested compound 2.5 wt%)

Compound | lipase activity, 3 d [1] [%] | lipase activity, 7 d [1] [%] | lipase activity, 14 d [1] [%] | lipase activity, 21 d [1] [%] | lipase activity, 28 d [1] [%] | lipase activity, 35 d [1] [%] | lipase activity, T0 [1] [%] | lipase activity, 3 d [2] [%] | lipase activity, 7 d [2] [%] | lipase activity, 14 d [2] [%] | lipase activity, 21 d [2] [%] | lipase activity, 28 d [2] [%] | lipase activity, 35 d [2] [%] | lipase activity, 3 d [3] [%] | lipase activity, 7 d [3] [%] | lipase activity, 14 d [3] [%] | lipase activity, 21 d [3] [%] | lipase activity, 28 d [3] [%] | lipase activity, 35 d [3] [%] | lipase activity, T0 [3] [%] | also measured
CCOC(=O)C(=O)OCC [B.3, diethyloxalate, reference compound] | 90 | 80 | 70 | 54 | 45 | 37 | 97 | 94 | 79 | 69 | 50 | 40 | 32 | 93 | 86 | 74 | 63 | 51 | 46 | 98 | lipase activity, T0 [2]: 98%; lipase activity, 3 d [4]: 92%; lipase activity, 7 d [4]: 85%; lipase activity, 14 d [4]: 71%; lipase activity, 21 d [4]: 65%; lipase activity, 28 d [4]: 56%; lipase activity, 35 d [4]: 46%; lipase activity, T0 [4]: 97%
O=C([O-])CC(O)(CC(=O)[O-])C(=O)[O-].[Na+].[Na+].[Na+] [B.2, citric acid trisodiumsalt, reference compound] | 90 | 81 | 68 | 57 | 47 | 31 | 97 | 94 | 80 | 69 | 53 | 44 | 37 | 90 | 81 | 68 | 55 | 40 | 34 | 96 | lipase activity, 3 d [5]: 95%; lipase activity, 7 d [5]: 82%; lipase activity, 14 d [5]: 63%; lipase activity, 21 d [5]: 56%; lipase activity, 28 d [5]: 41%; lipase activity, 35 d [5]: 34%; lipase activity, T0 [5]: 98%; lipase activity, T0 [2]: 101%
CC(=O)OCC(COC(C)=O)OC(C)=O [B.4, glyceroltriacetate (triacetine), reference compound] | 91 | 84 | 72 | 56 | 45 | 39 | 98 | – | – | – | – | – | – | 91 | 82 | 73 | 59 | 50 | 46 | 97 | lipase activity, 3 d [5]: 87%; lipase activity, 7 d [5]: 77%; lipase activity, 14 d [5]: 67%; lipase activity, 21 d [5]: 56%; lipase activity, 28 d [5]: 42%; lipase activity, 35 d [5]: 35%; lipase activity, T0 [5]: 95%
Diethylcitrate [A.7] | 97 | 91 | 85 | 81 | 76 | 69 | 99 | 96 | 93 | 87 | 83 | 77 | 72 | 95 | 93 | 88 | 85 | 80 | 74 | 97 | lipase activity, 3 d [5]: 94%; lipase activity, 7 d [5]: 91%; lipase activity, 14 d [5]: 86%; lipase activity, 21 d [5]: 82%; lipase activity, 28 d [5]: 77%; lipase activity, 35 d [5]: 72%; lipase activity, T0 [5]: 99%; lipase activity, T0 [2]: 97%
CCOC(=O)CC(O)(CC(=O)OCC)C(=O)OCC [A.1, Triethylcitrate] | 102 | 96 | 94 | 87 | 85 | 80 | 100 | 98 | 96 | 93 | 90 | 85 | 82 | 96 | 94 | 93 | 88 | 85 | 82 | 98 | lipase activity, 3 d [5]: 101%; lipase activity, 7 d [5]: 94%; lipase activity, 14 d [5]: 90%; lipase activity, 21 d [5]: 88%; lipase activity, 28 d [5]: 83%; lipase activity, 35 d [5]: 80%; lipase activity, T0 [5]: 100%; lipase activity, T0 [2]: 100%; lipase activity, 3 d [4]: 96%; lipase activity, 7 d [4]: 93%; lipase activity, 14 d [4]: 89%; lipase activity, 21 d [4]: 84%; lipase activity, 28 d [4]: 81%; lipase activity, 35 d [4]: 79%; lipase activity, T0 [4]: 100%
